# Peptide text beside a SMILES is read from it. * marks the point of attachment. Palmitoyl = CCCCCCCCCCCCCCCC(=O)*; X1 = NCCNCC(CNCCN)C(=O)*
# Experiment: Radioligand metabolic stability in peripheral mouse blood (radio-HPLC)
# Type: in vivo, mice
# Details: peripheral mouse blood 5 min pi
# Method: For the assessment of in vivo stability of [^99mTc]Tc-DT7/8/9, healthy Swiss Albino mice (33 animals, >8 weeks of age, body weight: 30 ± 5 g) were obtained from NCSR “Demokritos” Animal House (Athens, Greece). Animals were injected through the tail vein with the radioligand (100 μL, 2 nmol in vehicle: PBS/EtOH 9/1 v/v, with the addition of 0.1% Tween-80 in the case of [^99mTc]Tc-DT9) plus vehicle (100 μL; controls) or plus Lis (100 μg in 100 μL vehicle; Lis). Additional mice groups received per os a suspension of Entresto® (200 μL, 12 mg, 30 min prior to the i.v. injection of the radioligand plus vehicle—Entresto® group; or the i.v. injection of the radioligand plus Lis—Entresto®+Lis group). Animals were euthanized 5 min post injection (pi), and blood samples were drawn from the heart via a prechilled insulin syringe and transferred rapidly into pre-cooled 1.5 mL LoBind Eppendorf tubes containing EDTA (20 μL, 0.1 mM EDTA), and the collected radioactivity was measured in a dose calibrator (CURIEMENTOR 4, PTW Freiburg-GmbH; Freiburg, Germany). The tubes were centrifuged for 10 min at 2000× g at 4 °C in a Hettich Universal 320 R centrifuge (Tuttlingen, Germany). The plasma was collected, diluted in a 1:1 v/v ratio with MeCN, and thoroughly mixed; sample tubes were again centrifuged for 10 min at 15000× g at 4 °C. The supernatant was collected and the volume reduced to 50–100 μL under a gentle flux of N2 and mild heating at 60 °C. […] Sample activity was measured in the dose calibrator, and aliquots were analyzed by radio-HPLC on a Symmetry Shield RP18 cartridge column (5 μm, 3.9 mm × 20 mm; Waters, Eschborn, Germany) eluted at a flow rate of 1 mL/min with the linear gradient (system 2): from 100% A/0% B to 60% A/40% B in 40 min (A: 0.1% aqueous TFA; B: MeCN). […] The tR of intact [^99mTc]Tc-DT7, [^99mTc]Tc-DT8, or [^99mTc]Tc-DT9 was determined by co-injection of blood samples processed as above with an aliquot of the labeling solution. […]
smiles,measurement,setting,value
"CCCCCCCCCCCCCCCC(=O)NCCCC[C@H](NC(=O)C(CNCCN)CNCCN)C(=O)N[C@@H](CCCNC(=N)N)C(=O)N[C@@H](CCCNC(=N)N)C(=O)N1CCC[C@H]1C(=O)N[C@@H](Cc1ccc(O)cc1)C(=O)N[C@H](C(=O)N[C@@H](CC(C)C)C(=O)O)[C@@H](C)CC [[^99mTc]Tc-DT9, metal not drawn] (X1-K(Palmitoyl)RRPYIL-OH)",intact radioligand,Control,98.06 ± 1.18 (n = 3) %
same,intact radioligand,Entresto,97.33 ± 1.7 (n = 3) %
same,intact radioligand,Entresto+Lis,93.72 ± 3.7 (n = 3) %
